This note sets out measurements from ChEMBL document CHEMBL1137131, “Synthesis and cytotoxicity of water soluble quaternary salt derivatives of camptothecin” (Bioorg Med Chem Lett, 2004).

Common to all, as to assay type: functional, cell-based
One experiment deals with KB. The experiment in a line: In vitro cytotoxicity against KB cell line (human epidermoid carcinoma of the nasopharynx) using MTT assay.
The subject of the next experiment is Bel-7402. In words: In vitro cytotoxicity against Bel7402 cell line (human liver cancer) using MTT assay.
A further experiment deals with HCT-8. The experiment in a line: In vitro cytotoxicity against HCT-8 cell line (human colon cancer) using MTT assay.

≈ marks a conversion by molar mass, not a printed value.

Regarding `CC[C@@]1(O)C(=O)OCc2c1cc1n(c2=O)Cc2cc3cc(OCC[n+]4cccc(C(C)=O)c4)ccc3nc2-1`, the IC50 in the experiment with KB is 3.21 µg/mL; in the experiment on Bel-7402, 5 µg/mL; with HCT-8, 3.01 µg/mL.

For the molecule `CC[C@@]1(O)C(=O)OCc2c1cc1n(c2=O)Cc2cc3cc(OCC[n+]4cccc(C=O)c4)ccc3nc2-1`, the IC50 is 0.34 µg/mL in the experiment with KB, 3.73 µg/mL in the experiment with Bel-7402 and 0.35 µg/mL with HCT-8.

Turning to `CC[C@@]1(O)C(=O)OCc2c1cc1n(c2=O)Cc2cc3cc(OCCC[n+]4cccc(O)c4)ccc3nc2-1`, the concentration for half-maximal inhibition (IC50) in the experiment on KB was found to be 0.04 µg/mL; with Bel-7402, 3.92 µg/mL; in the experiment with HCT-8, 0.03 µg/mL.

As to `CC[C@@]1(O)C(=O)OCc2c1cc1n(c2=O)Cc2cc3cc(OCCC[n+]4cccc(CO)c4)ccc3nc2-1`, the IC50 turned out to be 0.31 µg/mL with KB, 2.87 µg/mL in the experiment with Bel-7402 and 0.34 µg/mL in the experiment on HCT-8.

Regarding `CC[C@@]1(O)C(=O)OCc2c1cc1n(c2=O)Cc2cc3cc(OCCC[n+]4cccc(C(C)=O)c4)ccc3nc2-1`, the IC50 worked out at 3.13 µg/mL with KB, 5 µg/mL with Bel-7402 and 3.15 µg/mL in the experiment on HCT-8.

For the molecule `CC[C@@]1(O)C(=O)OCc2c1cc1n(c2=O)Cc2cc3cc(OCCC[n+]4ccccc4)ccc3nc2-1`, the IC50 was found to be 0.03 µg/mL in the experiment with KB, 0.44 µg/mL in the experiment with Bel-7402 and 0.03 µg/mL in the experiment on HCT-8.

Consider `CC[C@@]1(O)C(=O)OCc2c1cc1n(c2=O)Cc2cc3cc(OCC[n+]4cccc(C(=O)O)c4)ccc3nc2-1`, for which the figures for the half-maximal inhibitory concentration (IC50) with KB, in the experiment with Bel-7402 and in the experiment with HCT-8 were 0.31 µg/mL, 5 µg/mL and 0.27 µg/mL, respectively.

On to `CC[C@@]1(O)C(=O)OCc2c1cc1n(c2=O)Cc2cc3cc(OCC[n+]4cccc(C)c4)ccc3nc2-1`, for which the results for the IC50 with KB, in the experiment on Bel-7402 and with HCT-8 were 0.63 µg/mL, 0.47 µg/mL and 1.42 µg/mL, respectively.

Turning to `CC[C@@]1(O)C(=O)OCc2c1cc1n(c2=O)Cc2cc3cc(OCCC[n+]4cccc(C)c4)ccc3nc2-1`, the results for the IC50 in the experiment on KB, with Bel-7402 and with HCT-8 were below 0.005 µg/mL, 0.04 µg/mL and below 0.005 µg/mL, respectively.

With `CC[C@@]1(O)C(=O)OCc2c1cc1n(c2=O)Cc2cc3cc(OCC[n+]4cccc(O)c4)ccc3nc2-1`, the results for the half-maximal inhibitory concentration (IC50) in the experiment with KB, in the experiment on Bel-7402 and with HCT-8 were 0.32 µg/mL, 0.47 µg/mL and 0.42 µg/mL, respectively.

Take `CC[C@@]1(O)C(=O)OCc2c1cc1n(c2=O)Cc2cc3cc(OCCC[n+]4cccc(C=O)c4)ccc3nc2-1`: the values for the IC50 with KB, in the experiment on Bel-7402 and in the experiment with HCT-8 were 0.27 µg/mL, 0.46 µg/mL and 0.17 µg/mL, respectively.

In the case of `CC[C@@]1(O)C(=O)OCc2c1cc1n(c2=O)Cc2cc3cc(OCC[n+]4ccccc4)ccc3nc2-1`, the 50% inhibitory concentration (IC50) in the experiment with KB was 0.33 µg/mL; with Bel-7402 it was 3.53 µg/mL; in the experiment on HCT-8, 0.45 µg/mL.

For the molecule `CC[C@@]1(O)C(=O)OCc2c1cc1n(c2=O)Cc2cc3cc(OCC[n+]4cccc(CO)c4)ccc3nc2-1`, the results for the IC50 in the experiment with KB, in the experiment on Bel-7402 and with HCT-8 were 3.28 µg/mL, 5 µg/mL and 3.73 µg/mL, respectively.

For the molecule `CC[C@@]1(O)C(=O)OCc2c1cc1n(c2=O)Cc2cc3cc(OCCC[n+]4cccc(F)c4)ccc3nc2-1`, the IC50 in the experiment on KB is 3.4 µg/mL; in the experiment with Bel-7402, 5 µg/mL; with HCT-8, 2.02 µg/mL.

In the case of `CC[C@@]1(O)C(=O)OCc2c1cc1n(c2=O)Cc2cc3cc(OCC[n+]4cccc(F)c4)ccc3nc2-1`, the values for the IC50 with KB, with Bel-7402 and in the experiment on HCT-8 were 0.33 µg/mL, 5 µg/mL and 0.38 µg/mL, respectively.

`CC[C@@]1(O)C(=O)OCc2c1cc1n(c2=O)Cc2cc3cc(OCCC[n+]4cccc(C(=O)O)c4)ccc3nc2-1`: the IC50 is 0.32 µg/mL in the experiment with KB, 0.44 µg/mL with Bel-7402 and 0.33 µg/mL with HCT-8.

In the case of `CC[C@@]1(O)C(=O)OCc2c1cc1n(c2=O)Cc2cc3ccccc3nc2-1` [CAMPTOTHECIN], the IC50 was below 0.005 µg/mL in the experiment with KB, 2.72 µg/mL (≈ 7.81 µM) in the experiment on Bel-7402 and below 0.005 µg/mL with HCT-8.

`CC[C@@]1(O)C(=O)OCc2c1cc1n(c2=O)Cc2cc3c(CN(C)C)c(O)ccc3nc2-1.Cl` [TOPOTECAN HYDROCHLORIDE]: the IC50 was 0.02 µg/mL in the experiment with KB, 0.4 µg/mL in the experiment with Bel-7402 and 0.03 µg/mL in the experiment on HCT-8.
